Test results published in patent US20080299118A1, “FXR Agonists for the Treatment of Malignancies” (Wyeth, priority 2007, published 2008).

Columns and labels:
RECK gene [1] = test: RECK expression in liver of male LDLR deficient mice, real-time PCR of liver RNA; type: in vivo, mouse; conditions: Western diet, 30 mg/kg by gavage once a day for 7 days, liver RNA 4 h after final treatment, p<0.01
Method: Male LDLR deficient mice, fed a Western diet, were administered vehicle or 30 mg/kg Compound A [isopropyl 3-(3,4-difluorobenzoyl)-1,1-dimethyl-1,2,3,6-tetrahydroazepino[4,5-b]indole-5-carboxylate] by gavage once a day for 7 days. Four hours after the final treatment, mice were euthanized and real-time PCR analysis of liver RNA was performed.
RECK expression levels were normalized to GAPDH and the mean level of RECK expression in vehicle treated mice was defined as 1.0. Data are presented as the mean ± standard error of the mean (SEM). 6 mice were tested in each group.

RECK gene [2] = test: RECK expression in liver of wildtype, FXR deficient and SHP deficient mice, real-time PCR of liver RNA; type: in vivo, mouse; conditions: 30 mg/kg by gavage once a day for 7 days
Method: Wildtype or FXR deficient mice on the C57B1/6 background and wildtype or SHP deficient mice on the 129 background were fed a standard chow diet. Mice were administered vehicle or 30 mg/kg Compound A by gavage once a day for 7 days. Four hours after the final treatment, mice were euthanized and real-time PCR analysis of liver RNA was performed.
RECK expression levels were normalized to GAPDH and the mean level of RECK expression in vehicle treated female C57B1/6 mice was defined as 1.0. Data are presented as the mean ±SEM. 6 mice were tested in each group. […] (p<0.01). […] (p<0.01).

RECK gene [3] = test: Kinetics of induction of RECK expression in liver after a single dose, wildtype and FXR deficient mice; type: in vivo, mouse; conditions: wildtype mice, single dose 30 mg/kg by oral gavage
Method: Wildtype or FXR deficient male and female mice were administered a single dose of vehicle or 30 mg/kg Compound A by oral gavage. Mice were euthanized at various times after treatment and real-time PCR analysis of liver RNA was performed.
RECK expression levels were normalized to GAPDH, and the mean level of RECK expression at t=0 was defined as 1.0. […] The kinetics of induction of RECK expression by Compound A are consistent with direct induction of RECK expression by FXR activation.

RECK gene [4] = test: RECK expression in mouse primary hepatocytes, real-time PCR; type: cell-based; conditions: 1 μM; for RECK expression, fold induction relative to t=0: normalized to GAPDH, p<0.01
Method: Mouse primary hepatocytes were plated at 1.5×10^5 cells per well in 24-well plates and cultured in Williams E medium supplemented with 15 mM HEPES pH 7.4, 1% insulin-transferrin-selenium supplement, 1 nM dexamethasone, 50 U/ml penicillin, and 50 μg/ml streptomycin. Cells were treated with DMSO vehicle or with the FXR agonists, Compound A or Compound B ((E)-3-(2-chloro-4-((3-(2,6-dichlorophenyl)-5-isopropylisoxazol-4-yl)methoxy)styryl)benzoic acid). Cells were harvested at various times after treatment and RNA was prepared for real-time PCR analysis.
RECK expression levels were normalized to GAPDH and the mean level of RECK expression at t=0 was defined as 1.0.

RECK gene [5] = test: RECK expression in human hepatocytes, real-time PCR; type: cell-based; conditions: 1 μM, 24 hours of treatment, p<0.05
Method: Confluent monolayers of human hepatocytes in 24-well plates, cultured in InVitroGRO HI medium, were treated with DMSO vehicle or Compound A. After 24 hours of treatment, the cells were harvested and RNA was prepared for real time PCR analysis.
RECK expression was normalized to GAPDH, and the mean level of RECK expression in DMSO treated cells was defined as 1.0. The data are presented as the mean ± SEM from triplicate determinations.

RECK expression, fold induction relative to t=0 (RECK gene [3]; liver RNA) | RECK expression, fold induction relative to t=0 (RECK gene [4]) | SMILES | RECK expression (normalized to GAPDH, vehicle = 1.0) (RECK gene [1]) | RECK expression (normalized to GAPDH) (RECK gene [2]; FXR deficient mice (C57B1/6 background)) | RECK expression (normalized to GAPDH) (RECK gene [2]; SHP deficient mice (129 background), p=0.02 in males, p<0.01 in females) | RECK expression (normalized to GAPDH) (RECK gene [2]; male and female wildtype C57B1/6 mice, p<0.01) | Induction of RECK expression, female compared to male (RECK gene [2]; wildtype 129 mice, p<0.01) | Induction of RECK expression, female compared to male (RECK gene [2]; wildtype C57B1/6 mice) | Time after administration at which induction of RECK expression was observed (RECK gene [3]; expression continued to increase at later time points, p<0.01) | Time of peak RECK expression following treatment (RECK gene [4]) | RECK expression (normalized to GAPDH, DMSO = 1.0) (RECK gene [5])
induced RECK expression | induced RECK expression | CC(C)OC(=O)C1=CN(C(=O)c2ccc(F)c(F)c2)CC(C)(C)c2c1[nH]c1ccccc21 [Compound A, isopropyl 3-(3,4-difluorobenzoyl)-1,1-dimethyl-1,2,3,6-tetrahydroazepino[4,5-b]indole-5-carboxylate] | RECK expression is induced | failed to induce RECK expression | induction of RECK expression was observed | induced expression of the RECK gene | enhanced compared to male 129 mice | Enhanced induction of RECK expression was observed in female compared to male | ≤ 2 h | 4 h | induced expression of the RECK gene
 | induced RECK expression | CC(C)c1onc(-c2c(Cl)cccc2Cl)c1COc1ccc(/C=C/c2cccc(C(=O)O)c2)c(Cl)c1 [Compound B, (E)-3-(2-chloro-4-((3-(2,6-dichlorophenyl)-5-isopropylisoxazol-4-yl)methoxy)styryl)benzoic acid, reference compound] |  |  |  |  |  |  |  | 4 h | 
